Measured values taken from patent US8318504B2, “MRP2 efflux pathway prognostic method” (priority 2009, dated 2012).

Experiments:
ABCC3 = target: T1, ABCC3 (Homo sapiens, UniProt O15438); assay: ATP-dependent transport of CLF into Sf21 membrane vesicles containing ABCC3; assay type: biochemical
T1 construct: made in house; host or cells: Sf21 insect cells, baculovirus (gift from Borst); plasma membrane vesicles
Protocol: (§1) The production of recombinant baculovirus was as described by de Waart et al. [Liver Int 2006 April; 26(3):362-368]. ABCC3 and ABCG2-recombinant baculovirus were a kind gift from Borst [Breedveld P. et al., Cancer Res 2004 Aug. 15; 64(16):5804-5811 and Borst P. et al., J Biol Chem 2001 Dec. 7; 276(49):46400-46407.]. ABCB11-recombinant baculovirus was a kind gift from Thompson [Thompson R J et al., Gastroenterology 2002 November; 123(5):1649-1658]. Sf21 cells grown at 27° C. were infected with ABCB11, ABCC2, ABCC3 and ABCG2-cDNA containing baculovirus. Cells were harvested at 2-4 days after infection. Membrane vesicle preparation was as described by de Waart et al. [Liver Int 2006 April; 26(3):362-368].
Transport studies with membrane vesicles were performed using the rapid filtration technique as described by Heijn M et al. [Am J Physiol 1992 January; 262(1 Pt 1):C104-C110]. Radiolabel was measured with a scintillation counter. When CLF was used as a probe, filters were placed in a glass tube, 0.1% Triton-X-100 was added and the tubes vortexed. Samples were pipetted in 96-well plates (Kartell, Noviglio, Italy) and the amount CLF quantitated by measurement of fluorescence at λexe 485 nm and λcm 520 nm using a NovoStar (BMG-labtech, Offenburg, Germany). […]

ABCC2 = target: T2, ABCC2 (Homo sapiens, UniProt Q92887); assay: CLF inhibition of DNP-SG transport into ABCC2 containing Sf21 membrane vesicles; assay type: biochemical; details: ATP-dependent transport, read-out: Half maximal inhibition of DNP-SG transport with CLF
T2 construct: made in house; host or cells: Sf21 insect cells, baculovirus; plasma membrane vesicles
T2 sequence (Q92887 whole entry): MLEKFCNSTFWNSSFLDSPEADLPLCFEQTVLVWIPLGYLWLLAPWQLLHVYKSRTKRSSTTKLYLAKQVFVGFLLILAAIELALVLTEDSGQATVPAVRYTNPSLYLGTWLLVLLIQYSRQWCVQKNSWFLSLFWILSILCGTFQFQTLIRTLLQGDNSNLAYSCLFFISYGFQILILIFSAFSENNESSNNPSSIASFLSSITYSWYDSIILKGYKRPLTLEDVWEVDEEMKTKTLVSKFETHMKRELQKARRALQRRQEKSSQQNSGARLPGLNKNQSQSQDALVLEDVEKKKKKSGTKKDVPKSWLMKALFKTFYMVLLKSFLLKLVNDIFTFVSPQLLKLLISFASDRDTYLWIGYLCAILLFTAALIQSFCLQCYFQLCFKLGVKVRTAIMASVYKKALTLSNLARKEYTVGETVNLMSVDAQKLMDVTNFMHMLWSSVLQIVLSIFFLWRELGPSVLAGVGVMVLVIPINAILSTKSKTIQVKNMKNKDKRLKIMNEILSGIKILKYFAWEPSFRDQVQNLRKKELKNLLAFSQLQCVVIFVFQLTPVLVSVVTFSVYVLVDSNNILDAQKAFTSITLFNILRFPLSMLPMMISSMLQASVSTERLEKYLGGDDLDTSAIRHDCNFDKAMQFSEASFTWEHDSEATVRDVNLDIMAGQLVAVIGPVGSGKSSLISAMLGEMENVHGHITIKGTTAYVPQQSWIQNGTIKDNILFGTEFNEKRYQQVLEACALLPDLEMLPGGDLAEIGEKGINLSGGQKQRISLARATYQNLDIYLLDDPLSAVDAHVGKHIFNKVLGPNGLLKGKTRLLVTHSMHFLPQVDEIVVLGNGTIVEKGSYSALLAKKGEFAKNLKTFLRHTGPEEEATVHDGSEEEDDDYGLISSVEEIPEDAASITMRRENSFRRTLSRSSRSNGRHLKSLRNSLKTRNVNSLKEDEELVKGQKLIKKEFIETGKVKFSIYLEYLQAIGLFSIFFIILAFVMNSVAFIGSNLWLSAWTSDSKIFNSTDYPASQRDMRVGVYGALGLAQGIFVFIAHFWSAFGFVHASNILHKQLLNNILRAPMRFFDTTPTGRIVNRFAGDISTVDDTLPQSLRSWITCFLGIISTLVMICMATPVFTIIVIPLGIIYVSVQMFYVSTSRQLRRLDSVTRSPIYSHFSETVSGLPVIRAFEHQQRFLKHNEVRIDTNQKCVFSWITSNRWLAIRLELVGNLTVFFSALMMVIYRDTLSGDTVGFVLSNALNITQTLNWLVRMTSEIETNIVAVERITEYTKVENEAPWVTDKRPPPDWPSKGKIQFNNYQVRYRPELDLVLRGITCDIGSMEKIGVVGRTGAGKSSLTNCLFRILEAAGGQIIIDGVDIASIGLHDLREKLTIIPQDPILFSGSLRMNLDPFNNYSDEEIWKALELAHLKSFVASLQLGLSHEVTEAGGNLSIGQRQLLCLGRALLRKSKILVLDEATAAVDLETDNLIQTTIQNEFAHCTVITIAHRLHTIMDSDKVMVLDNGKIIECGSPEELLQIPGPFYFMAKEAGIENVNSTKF
Protocol: FIGS. 5A and 5B show CLF inhibition of DNP-SG and TC transport into ABCC2 (A) and ABCB11 (B) protein containing Sf21 membrane vesicles respectively. The values are expressed as a percentage of maximal ATP-dependent transport. Significance was tested using two-sided Student's t-test: *P<0.05 for transport in the presence vs. absence of inhibitor.
as §1, with “Membrane vesicle preparation was as described by de Waart et al. [Liver Int 2006 April; 26(3):362-368].” left out
Transport studies with membrane vesicles were performed using the rapid filtration technique as described by Heijn M et al. [Am J Physiol 1992 January; 262(1 Pt 1):C104-C110]. Radiolabel was measured with a scintillation counter. […] Samples were pipetted in 96-well plates (Kartell, Noviglio, Italy) and the amount CLF quantitated by measurement of fluorescence at λexe 485 nm and λcm 520 nm using a NovoStar (BMG-labtech, Offenburg, Germany).

OATP2B1 = target: T3, OATP2B1 (Homo sapiens, UniProt O94956); assay: Inhibition by CLF of estrone-3-sulfate transport in CHO cells expressing OATP2B1; assay type: cell-based; details: 0, 5 or 50 μmol/L CLF, 1 μmol/L estrone-3-sulfate
T3 construct: expressed in transfected cells; host or cells: CHO cells (stably transfected; Treiber et al. 2007)
T3 sequence (O94956 1-709): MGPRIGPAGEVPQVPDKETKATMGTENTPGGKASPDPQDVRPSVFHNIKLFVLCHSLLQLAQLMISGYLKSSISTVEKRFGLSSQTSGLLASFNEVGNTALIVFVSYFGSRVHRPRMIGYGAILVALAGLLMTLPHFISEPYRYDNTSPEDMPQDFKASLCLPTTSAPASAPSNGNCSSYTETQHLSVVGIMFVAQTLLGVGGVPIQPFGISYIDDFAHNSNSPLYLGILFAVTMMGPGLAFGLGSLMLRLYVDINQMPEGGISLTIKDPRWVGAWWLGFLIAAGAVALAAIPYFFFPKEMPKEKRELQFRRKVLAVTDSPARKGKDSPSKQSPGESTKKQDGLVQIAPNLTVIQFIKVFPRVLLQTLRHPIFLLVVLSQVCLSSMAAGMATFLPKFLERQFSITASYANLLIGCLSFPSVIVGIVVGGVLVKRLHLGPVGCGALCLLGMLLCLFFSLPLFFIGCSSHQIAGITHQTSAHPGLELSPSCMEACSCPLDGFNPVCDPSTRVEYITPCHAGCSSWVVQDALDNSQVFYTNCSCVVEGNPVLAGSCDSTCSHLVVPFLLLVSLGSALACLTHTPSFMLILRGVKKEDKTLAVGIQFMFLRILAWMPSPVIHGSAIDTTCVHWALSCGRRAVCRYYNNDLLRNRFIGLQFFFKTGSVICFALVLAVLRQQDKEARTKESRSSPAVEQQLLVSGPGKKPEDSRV
Protocol: FIGS. 3A-3D relate to inhibition of transport activity of hepatocellular uptake transporters by CLF. CHO cells expressing NTCP, OATP1B1, OATP1B3 and OATP2B1 were incubated with 0, 5 or 50 μmol/L CLF and with the substrates, 2.5 μmol/L TC, 1 μmol/L estrone-3-sulfate, 10 μmol/L TC and 1 μmol/L estrone-3-sulfate, respectively. Data represent means±SD of triplicate determinations.
For all transport experiments, cells grown on 3 cm culture dishes were cultured for 24 hours in media supplemented with 5 mmol/L sodium-butyrate to increase expression levels of transfected transporters [Palermo D P et al., J Biotechnol 1991 June; 19(1):35-47]. • Transport experiments with uptake of radioactively labeled substrates: These experiments were performed as described by Huber R D et al. [Am J Physiol Cell Physiol 2007 February; 292(2):C795-C806]. • Transport experiments with uptake of CLF: Uptake was performed in the same buffers as for the radioactive substrates above. […] After complete solubilization, 1.5 ml was used to measure fluorescence in a Perkin-Elmer LS-5 luminescence-spectrometer set at λexe 486 nm (slit 10 nm) and λem 520 nm (slit 5 nm). Protein was determined with the bicinchoninic acid method using a kit from Interchim (Montfuçon, France). […]

T1 sequence (O15438 whole entry): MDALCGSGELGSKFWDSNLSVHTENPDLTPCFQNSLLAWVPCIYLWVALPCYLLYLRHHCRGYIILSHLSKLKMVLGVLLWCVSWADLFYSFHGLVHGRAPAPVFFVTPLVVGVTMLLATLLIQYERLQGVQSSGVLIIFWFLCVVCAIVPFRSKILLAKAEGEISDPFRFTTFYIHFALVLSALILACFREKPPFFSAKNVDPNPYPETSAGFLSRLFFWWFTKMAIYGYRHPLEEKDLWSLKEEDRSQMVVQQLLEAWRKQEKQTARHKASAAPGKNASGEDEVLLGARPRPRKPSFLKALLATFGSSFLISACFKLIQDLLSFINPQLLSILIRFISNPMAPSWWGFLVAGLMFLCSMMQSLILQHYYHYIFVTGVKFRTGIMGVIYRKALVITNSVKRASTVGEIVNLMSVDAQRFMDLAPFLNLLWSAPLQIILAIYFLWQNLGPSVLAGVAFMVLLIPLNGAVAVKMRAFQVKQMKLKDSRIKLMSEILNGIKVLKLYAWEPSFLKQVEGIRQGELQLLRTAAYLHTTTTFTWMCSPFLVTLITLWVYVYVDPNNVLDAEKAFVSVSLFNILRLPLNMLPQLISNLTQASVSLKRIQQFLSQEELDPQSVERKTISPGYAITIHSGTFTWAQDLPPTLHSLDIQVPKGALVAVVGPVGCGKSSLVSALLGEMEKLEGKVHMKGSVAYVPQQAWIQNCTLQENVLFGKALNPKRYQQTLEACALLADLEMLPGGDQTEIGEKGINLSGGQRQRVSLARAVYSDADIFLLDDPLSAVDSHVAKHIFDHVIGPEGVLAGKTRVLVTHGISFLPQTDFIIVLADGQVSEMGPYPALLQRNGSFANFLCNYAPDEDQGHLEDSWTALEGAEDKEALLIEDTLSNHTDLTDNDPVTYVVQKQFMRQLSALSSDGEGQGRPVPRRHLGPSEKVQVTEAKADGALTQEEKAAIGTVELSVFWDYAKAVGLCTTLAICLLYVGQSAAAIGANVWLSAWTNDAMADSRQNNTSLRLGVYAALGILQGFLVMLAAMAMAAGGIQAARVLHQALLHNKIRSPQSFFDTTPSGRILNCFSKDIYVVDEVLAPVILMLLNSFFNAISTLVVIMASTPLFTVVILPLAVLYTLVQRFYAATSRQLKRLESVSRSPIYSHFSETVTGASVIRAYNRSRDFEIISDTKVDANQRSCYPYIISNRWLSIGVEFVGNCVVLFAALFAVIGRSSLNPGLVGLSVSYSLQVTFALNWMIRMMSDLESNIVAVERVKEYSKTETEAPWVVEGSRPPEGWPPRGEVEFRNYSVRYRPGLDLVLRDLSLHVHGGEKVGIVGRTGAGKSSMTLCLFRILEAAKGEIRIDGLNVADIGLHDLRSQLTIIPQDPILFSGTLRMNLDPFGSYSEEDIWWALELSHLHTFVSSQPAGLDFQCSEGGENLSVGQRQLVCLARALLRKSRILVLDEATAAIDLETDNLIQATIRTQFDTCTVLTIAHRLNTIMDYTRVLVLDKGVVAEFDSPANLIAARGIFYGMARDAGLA

With CC(CCC(=O)NC(CCCCNC(=S)Nc1ccc(-c2c3ccc(=O)cc-3oc3cc(O)ccc23)c(C(=O)O)c1)C(=O)O)C1CCC2C3C(O)CC4CC(O)CCC4(C)C3CC(O)C12C (stereo not shown) [CLF, cholyl lysyl fluorescein] the “Vmax of ABCC3 mediated transport of CLF” value (ABCC3; 30 μg total protein, presence or absence of 4 mmol/L ATP) was 188±55 μmol CLF/mg protein/min, the “CLF transport in ABCC3 containing membrane vesicles” value (ABCC3; compared to control wild type Sf21 membrane vesicles) was “much higher CLF transport rates” and the IC50 (ABCC2) was ~1000 nM. The “inhibition of transport of estrone-3-sulfate mediated by OATP2B1 by CLF” value (OATP2B1) was “much less efficiently”.
